Columns and labels:
[1] = system: Musca domestica (houseflies - adults); experiment: pest mortality, Musca domestica, contact test; type: in vivo; conditions: 500 ppm, cotton wool/sugar, duration 1 day
Experimental: (§1) The activity of each compound was determined using a variety of insect mites and nematode pests. The compound was used in the form of liquid preparations containing from 100 to 500 parts per million (ppm) by weight of the compound. The preparations were made by dissolving the compound in acetone and diluting the solutions with water containing 0.1% by weight of a wetting agent sold under the trade name "SYNPERONIC" NX until the liquid preparations contained the required concentration of the product. "SYNPERONIC" is a Registered Trade Mark.
(§2) The test procedure adopted with regard to each pest was basically the same and comprised supporting a number of the pests on a medium which was usually a host plant or a food stuff on which the pests feed, and treating either or both the pests and the medium with the preparations. The mortality of the pests was then assessed at periods usually varying from one to seven days after the treatment. […]

Plasmopara viticola = experiment: foliar fungal disease control, Plasmopara viticola on vine; type: in vivo; conditions: 100 ppm foliar spray plus root drench approx. 40 ppm a.i./dry soil
Experimental: (§3) The compounds were tested against a variety of foliar fungal diseases of plants. The technique employed was as follows.
(§4) The plants were grown in John Innes Potting Compost (No 1 or 2) in 4 cm diameter minipots. The test compounds were formulated either by bead milling with aqueous Dispersol T or as a solution in acetone or acetone/ethanol which was diluted to the required concentration immediately before use. […] The sprays were applied to maximum retention and the root drenches to a final concentration equivalent to approximately 40 ppm a.i./dry soil. Tween 20, to give a final concentration of 0.05%, was added when the sprays were applied to cereals.
(§5) For most of the tests the compound was applied to the soil (roots) and to the foliage (by spraying) one or two days before the plant was inoculated with the disease. An exception was the test on Erysiphe graminis in which the plants were inoculated 24 hours before treatment. Foliar pathogens were applied by spray as spore suspensions onto the leaves of test plants. After inoculation, the plants were put into an appropriate environment to allow infection to proceed and then incubated until the disease was ready for assessment. The period between inoculation and assessment varied from four to fourteen days according to the disease and environment.
(§6) The disease control was recorded by the following grading: […]

[2] = system: Diabrotica balteata (rootworm larvae); experiment: pest mortality, Diabrotica balteata, residual test; type: in vivo; conditions: 500 ppm, filter paper/maize seed, duration 3 days
Experimental: as §1, §2

Pyricularia oryzae = type: in vivo, Pyricularia oryzae (rice); conditions: 100 ppm foliar spray plus root drench approx. 40 ppm a.i./dry soil
Erysiphe graminis hordei = experiment: foliar fungal disease control, Erysiphe graminis hordei on barley; type: in vivo; conditions: 100 ppm foliar spray plus root drench approx. 40 ppm a.i./dry soil; inoculated 24 hours before treatment
Experimental: as §3, §4, §5, §6

[3] = system: Chilo partellus (maize stem borers); experiment: pest mortality, Chilo partellus, residual test; type: in vivo; conditions: 500 ppm, oil seed rape leaf, duration 3 days
Experimental: as §1, §2

Venturia inaequalis = experiment: foliar fungal disease control, Venturia inaequalis on apple; type: in vivo; conditions: 100 ppm foliar spray plus root drench approx. 40 ppm a.i./dry soil
Experimental: as §3, §4, §5, §6

Puccinia recondita = experiment: foliar fungal disease control, Puccinia recondita on wheat; type: in vivo; conditions: 100 ppm foliar spray plus root drench approx. 40 ppm a.i./dry soil
Experimental: as §3, §4, §5, §6

Cercospora arachidicola = experiment: foliar fungal disease control, Cercospora arachidicola on peanut; type: in vivo; conditions: 100 ppm foliar spray plus root drench approx. 40 ppm a.i./dry soil
Experimental: as §3, §4, §5, §6

[4] = system: Tetranychus uritcae (spider mites and ova); experiment: pest mortality, Tetranychus uritcae, contact test; type: in vivo; conditions: 500 ppm, French bean leaf, duration 3 days
Experimental: as §1, §2

Phytophthora infestans = type: in vivo, Phytophthora infestans (tomato); conditions: 100 ppm foliar spray plus root drench approx. 40 ppm a.i./dry soil

| SMILES | grading of mortality, MD [1] | disease control grading, Plasmopara viticola (vine) (Plasmopara viticola) | grading of mortality, DB [2] | disease control grading, Pyricularia oryzae (rice) (Pyricularia oryzae) | disease control grading, Erysiphe graminis hordei (barley) (Erysiphe graminis hordei) | grading of mortality, CP [3] | disease control grading, Venturia inaequalis (apple) (Venturia inaequalis) | disease control grading, Puccinia recondita (wheat) (Puccinia recondita) | disease control grading, Cercospora arachidicola (peanut) (Cercospora arachidicola) | grading of mortality, TUe [4] | disease control grading, Phytophthora infestans (tomato) (Phytophthora infestans) |
| --- | --- | --- | --- | --- | --- | --- | --- | --- | --- | --- | --- |
| CO/C=C(/C(=O)OC)c1ccccc1Oc1ccc(Cl)cn1 [Compound 14 (Table I), (E)-methyl 2-[2'-(5"-chloropyridin-2"-yloxy)phenyl]-3-methoxyacrylate] | 9 (80-100% mortality) | 4 | 5 (50-79% mortality) | 4 | 4 | 9 (80-100% mortality) | 2 (6-25% of disease on untreated plants) | 4 | 4 | 0 (less than 50% mortality) | – |
| CO/C=C(/C(=O)OC)c1ccccc1Oc1ccc(Br)cn1 [Compound 15 (Table I)] | 0 (less than 50% mortality) | 4 | 9 (80-100% mortality) | 3 (trace-5% of disease on untreated plants) | 4 | – | – | 4 | 3 (trace-5% of disease on untreated plants) | 0 (less than 50% mortality) | – |
| CO/C=C(/C(=O)OC)c1ccccc1Oc1cc(C)ccn1 [Compound 10 (Table I)] | – | 4 | – | 4 | 4 | – | 4 | 4 | 3 (trace-5% of disease on untreated plants) | – | 4 |
| CO/C=C(/C(=O)OC)c1ccccc1Oc1ccc(NC=O)cn1 [Compound 130 (Table I)] | – | 0 (60-100% of disease on untreated plants) | – | 0 (60-100% of disease on untreated plants) | 0 (60-100% of disease on untreated plants) | – | 0 (60-100% of disease on untreated plants) | 3 (trace-5% of disease on untreated plants) | 4 | – | 0 (60-100% of disease on untreated plants) |
| CO/C=C(/C(=O)OC)c1ccccc1Oc1ccc2ccccc2n1 [Compound 165 (Table I)] | – | 4 | – | 2 (6-25% of disease on untreated plants) | 4 | – | 4 | 2 (6-25% of disease on untreated plants) | 4 | – | 3 (trace-5% of disease on untreated plants) |
| CO/C=C(/C(=O)OC)c1ccccc1Oc1nc(C)cc(Cl)n1 [Compound 166 (Table I)] | – | 3 (trace-5% of disease on untreated plants) | – | 1 (26-59% of disease on untreated plants) | 4 | – | 4 | 4 | 4 | – | 3 (trace-5% of disease on untreated plants) |
| CO/C=C(/C(=O)OC)c1ccccc1Sc1ccc(Br)cn1 [Compound 15 (Table II), (E)-methyl 2-[2'-(5"-bromopyridin-2"-ylthio)phenyl]-3-methoxyacrylate] | – | 4 | – | 0 (60-100% of disease on untreated plants) | 3 (trace-5% of disease on untreated plants) | – | 0 (60-100% of disease on untreated plants) | 2 (6-25% of disease on untreated plants) | 1 (26-59% of disease on untreated plants) | – | 0 (60-100% of disease on untreated plants) |
| CO/C=C(/C(=O)OC)c1ccccc1Oc1ccc(N)cn1 [Compound 131 (Table I)] | – | 0 (60-100% of disease on untreated plants) | – | 0 (60-100% of disease on untreated plants) | 0 (60-100% of disease on untreated plants) | – | 0 (60-100% of disease on untreated plants) | 3 (trace-5% of disease on untreated plants) | 0 (60-100% of disease on untreated plants) | – | 0 (60-100% of disease on untreated plants) |
| CO/C=C(/C(=O)OC)c1ccccc1Oc1cc(F)nc(F)n1 [Compound 138 (Table I)] | – | 4 | – | 0 (60-100% of disease on untreated plants) | 0 (60-100% of disease on untreated plants) | – | 3 (trace-5% of disease on untreated plants) | 4 | 0 (60-100% of disease on untreated plants) | – | 0 (60-100% of disease on untreated plants) |

From patent publication US5057146A (priority 1986, dated 1991)
